In ChEMBL document CHEMBL4831522, “Structure-Based Optimization of Quinazolines as Cruzain and TbrCATL Inhibitors” (J Med Chem, 2021):
Calls of active or inactive are those of the source. The rule behind the calls is not given here.

How the values were obtained:
[1] = molecular target: Cruzipain (Trypanosoma cruzi) (UniProt P25779); assay: Inhibition of recombinant Trypanosoma cruzi cruzain at 100 uM using Z-FR-AMC as substrate by fluorometry relative to control
Cruzipain [2] = molecular target: T1, Cruzipain (Trypanosoma cruzi, UniProt P25779); assay: Inhibition of recombinant Trypanosoma cruzi cruzain using Z-FR-AMC as substrate by fluorometry
[3] = molecular target: Rhodesain (Trypanosoma brucei rhodesiense) (UniProt Q95PM0); assay: Inhibition of recombinant Trypanosoma brucei rhodesiense MVAT4 rhodesain expressed in Pichia pastoris at 100 uM using Z-FR-AMC as substrate by fluorometry relative to control
Rhodesain = Rhodesain (Trypanosoma brucei rhodesiense, UniProt Q95PM0); assay: Inhibition of recombinant Trypanosoma brucei rhodesiense MVAT4 rhodesain expressed in Pichia pastoris using Z-FR-AMC as substrate by fluorometry
[4] = molecular target: Cruzipain (Trypanosoma cruzi) (UniProt P25779); assay: Inhibition of recombinant Trypanosoma cruzi cruzain using Z-FR-AMC as substrate and compound-enzyme complex preincubated for 5 mins in presence of 0.1% Triton-X100 by fluorometry relative to control
[5] = molecular target: Cruzipain (Trypanosoma cruzi) (UniProt P25779); assay: Inhibition of recombinant Trypanosoma cruzi cruzain using Z-FR-AMC as substrate and compound-enzyme complex preincubated for 5 mins in presence of 0.01% Triton-X100 by fluorometry relative to control
[6] = molecular target: Cruzipain (Trypanosoma cruzi) (UniProt P25779); assay: Inhibition of recombinant Trypanosoma cruzi cruzain using Z-FR-AMC as substrate and compound-enzyme complex preincubated for 5 mins in presence of 0.001% Triton-X100 by fluorometry relative to control
[7] = molecular target: Cruzipain (Trypanosoma cruzi) (UniProt P25779); assay: Inhibition of recombinant Trypanosoma cruzi cruzain using Z-FR-AMC as substrate when compound was preincubated for 5 mins in presence of BSA and 0.001% Triton-X100 followed by further incubation for 5 mins in presence of enzyme relative to control; settings: time 10.0 min
Trypanosoma cruzi = assay: Trypanocidal activity against amastigotes form of Trypanosoma cruzi CA-I/72 infected in mouse C2C12 cells assessed as inhibition of parasite replication incubated for 48 hrs by DAPI staining based microscopic analysis; type: functional, organism-based; settings: CA-I/72, C2C12, 48 h
[8] = Cytotoxicity against mouse C2C12 cells; type: cell-based
[9] = Selectivity index, ratio of CC50 for cytotoxicity against mouse C2C12 cells to EC50 for trypanocidal activity against Trypanosoma cruzi […] infected in mouse C2C12 cells; type: toxicity, cell-based; settings: read-out: Selectivity Index
[10] = system: Trypanosoma brucei brucei; assay: Antitrypanosomal activity against Trypanosoma brucei brucei Lister 427 bloodstream forms measured after 72 hrs by SYBR green dye based assay; type: functional, organism-based; settings: Lister 427, 72 h
[11] = molecular target: Cruzipain (Trypanosoma cruzi) (UniProt P25779); assay: Inhibition of recombinant Trypanosoma cruzi cruzain at 20 uM using Z-FR-AMC as substrate by fluorometry relative to control
Cruzipain [12] = molecular target: T1, Cruzipain; assay: Inhibition of recombinant Trypanosoma cruzi cruzain using Z-FR-AMC as substrate preincubated for 10 mins followed by substrate addition by fluorometry
[13] = molecular target: Cruzipain (Trypanosoma cruzi) (UniProt P25779); assay: Inhibition of recombinant Trypanosoma cruzi cruzain at 50 uM using Z-FR-AMC as substrate preincubated for 10 mins followed by substrate addition by fluorometry relative to control
[14] = molecular target: Rhodesain (Trypanosoma brucei rhodesiense) (UniProt Q95PM0); assay: Inhibition of recombinant Trypanosoma brucei rhodesiense MVAT4 rhodesain expressed in Pichia pastoris at 50 uM using Z-FR-AMC as substrate preincubated for 10 mins followed by substrate addition by fluorometry relative to control
[15] = molecular target: Rhodesain (Trypanosoma brucei rhodesiense) (UniProt Q95PM0); assay: Inhibition of recombinant Trypanosoma brucei rhodesiense MVAT4 rhodesain expressed in Pichia pastoris at 20 uM using Z-FR-AMC as substrate by fluorometry relative to control
[16] = molecular target: Rhodesain (Trypanosoma brucei rhodesiense) (UniProt Q95PM0); assay: Inhibition of recombinant Trypanosoma brucei rhodesiense MVAT4 rhodesain expressed in Pichia pastoris at 1 uM using Z-FR-AMC as substrate by fluorometry relative to control
[17] = molecular target: Cruzipain (Trypanosoma cruzi) (UniProt P25779); assay: Inhibition of recombinant Trypanosoma cruzi cruzain at 100 uM using Z-FR-AMC as substrate preincubated for 10 mins followed by substrate addition by fluorometry relative to control
[18] = molecular target: Cruzipain (Trypanosoma cruzi) (UniProt P25779); assay: Time dependent inhibition of recombinant Trypanosoma cruzi cruzain at 100 uM using Z-FR-AMC as substrate by fluorometry; settings: time 10.0 min
[19] = molecular target: Rhodesain (Trypanosoma brucei rhodesiense) (UniProt Q95PM0); assay: Time dependent inhibition of recombinant Trypanosoma brucei rhodesiense MVAT4 rhodesain expressed in Pichia pastoris at 100 uM using Z-FR-AMC as substrate by fluorometry; settings: time 10.0 min
Cruzipain [20] = molecular target: T1, Cruzipain; assay: Competitive inhibition of Trypanosoma cruzi cruzain assessed as inhibition constant using varying levels of Z-FR-AMC as substrate by Michaelis-Menten analysis
[21] = molecular target: Cruzipain (Trypanosoma cruzi) (UniProt P25779); assay: Competitive inhibition of Trypanosoma cruzi cruzain assessed as unchanged initial velocity up to 25 uM using varying levels of Z-FR-AMC as substrate by Michaelis-Menten analysis; settings: dose microM <=25
[22] = molecular target: Cruzipain (Trypanosoma cruzi) (UniProt P25779); assay: Competitive inhibition of Trypanosoma cruzi cruzain assessed as increase in apparent Kapp up to 25 uM using varying levels of Z-FR-AMC as substrate by Michaelis-Menten analysis; settings: dose microM <=25

Chain of Rhodesain (Q95PM0 whole entry): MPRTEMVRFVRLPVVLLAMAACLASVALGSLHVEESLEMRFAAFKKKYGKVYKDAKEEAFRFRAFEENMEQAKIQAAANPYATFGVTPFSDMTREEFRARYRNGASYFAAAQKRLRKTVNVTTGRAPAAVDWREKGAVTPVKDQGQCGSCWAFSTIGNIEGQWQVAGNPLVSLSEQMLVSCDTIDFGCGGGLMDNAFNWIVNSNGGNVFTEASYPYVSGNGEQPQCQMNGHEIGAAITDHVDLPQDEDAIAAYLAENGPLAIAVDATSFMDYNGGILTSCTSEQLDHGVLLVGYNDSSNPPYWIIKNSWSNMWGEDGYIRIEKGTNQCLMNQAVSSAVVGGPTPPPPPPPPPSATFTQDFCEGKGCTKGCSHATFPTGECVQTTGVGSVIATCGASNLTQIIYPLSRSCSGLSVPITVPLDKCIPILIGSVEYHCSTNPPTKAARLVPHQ
Chain of Rhodesain (Trypanosoma brucei rhodesiense) (Q95PM0 1-450): as the sequence (Q95PM0 whole entry) above
Chain of Cruzipain (Trypanosoma cruzi) (P25779 123-467 limits assumed): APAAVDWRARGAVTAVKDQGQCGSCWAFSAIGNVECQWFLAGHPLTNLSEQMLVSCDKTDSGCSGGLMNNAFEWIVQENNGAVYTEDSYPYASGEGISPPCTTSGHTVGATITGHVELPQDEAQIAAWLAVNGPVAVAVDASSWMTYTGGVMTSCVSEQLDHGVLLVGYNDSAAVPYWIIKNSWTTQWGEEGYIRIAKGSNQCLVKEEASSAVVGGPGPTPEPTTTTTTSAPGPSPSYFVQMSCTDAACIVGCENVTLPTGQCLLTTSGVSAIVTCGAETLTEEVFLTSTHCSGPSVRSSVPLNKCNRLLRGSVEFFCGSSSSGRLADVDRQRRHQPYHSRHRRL
T1 sequence (P25779 whole entry): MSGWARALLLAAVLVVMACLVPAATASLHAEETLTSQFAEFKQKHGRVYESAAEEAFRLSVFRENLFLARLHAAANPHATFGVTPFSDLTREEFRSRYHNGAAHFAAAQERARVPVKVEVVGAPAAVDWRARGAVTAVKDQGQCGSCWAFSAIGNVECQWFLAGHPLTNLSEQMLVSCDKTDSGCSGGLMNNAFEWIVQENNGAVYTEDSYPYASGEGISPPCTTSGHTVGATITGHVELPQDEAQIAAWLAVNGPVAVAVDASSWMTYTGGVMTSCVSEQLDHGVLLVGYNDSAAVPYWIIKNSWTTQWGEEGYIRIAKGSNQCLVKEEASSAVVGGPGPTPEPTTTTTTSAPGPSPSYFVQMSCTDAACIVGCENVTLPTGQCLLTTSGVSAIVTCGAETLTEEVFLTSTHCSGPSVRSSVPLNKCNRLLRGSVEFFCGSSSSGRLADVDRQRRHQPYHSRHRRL

| Structure (SMILES) | inhibition [1] [%] | IC50 (Cruzipain [2]) [µM] | inhibition [3] [%] | inhibition [4] [%] | inhibition [5] [%] | inhibition [6] [%] | inhibition [7] [%] | EC50 (Trypanosoma cruzi) [µM] | CC50 [8] [µM] | selectivity ratio [9] | EC50 [10] [µM] | other results |
| --- | --- | --- | --- | --- | --- | --- | --- | --- | --- | --- | --- | --- |
| Oc1cccc(Nc2nc(NCc3ccccc3)c3ccccc3n2)c1 | 100 | 18 | 98 | 33 | 54 | 65 | 44 | 0.93 | 10 | > 11 | 13.8 | IC50 (Rhodesain): 26 µM |
| O=C(c1ccc(Nc2nc(NCCN3CCOCC3)c3ccccc3n2)cc1)N1CCOCC1 | 85 | 13.5 | 36 | 73 | 63 | 49 | 42 | 15 | > 10 | > 1 | > 50 | – |
| OCCCNc1nc(NCCN2CCOCC2)c2ccccc2n1 | 67 | – | 22 | – | – | – | – | 35 | > 10 | > 0.3 | > 50 | – |
| OCCCNc1nc(NCc2ccccc2)c2ccccc2n1 | 100 | 22 | 47 | 33 | 31 | 25 | 30 | 0.5 | > 10 | > 193 | > 50 | – |
| c1ccc(CNc2ccnc(Nc3ccccc3)n2)cc1 | – | – | 6 | – | – | – | – | 7 | > 10 | > 1 | > 50 | – |
| N=C(N)c1ccc(OCCCCCOc2ccc(C(=N)N)cc2)cc1 [PENTAMIDINE] | – | – | – | – | – | – | – | – | – | – | 0.026 | – |
| Clc1ccc(Nc2nc(NCc3ccccc3)c3ccccc3n2)cc1 | – | 2.4 | – | 1 | 48 | 42 | 35 | 0.5 | 10 | 21 | 93 | inhibition [11]: 78%; IC50 (Rhodesain): 33 µM |
| c1ccc(Nc2nc(Nc3ccccc3)c3ccccc3n2)cc1 | – | – | – | 81 | 84 | 71 | 62 | 0.9 | > 10 | > 11 | 16.3 | IC50 (Cruzipain [12]): 14 µM; inhibition [13]: 30%; inhibition [14]: 14% |
| O=C(Nc1ccccc1)c1ccc(Nc2nc(NCCN3CCOCC3)c3ccccc3n2)cc1 | 84 | – | 29 | – | – | – | – | 0.8 | > 10 | > 12 | 2.7 | – |
| Clc1ccc(Nc2nccc(NCc3ccccc3)n2)cc1 | – | – | 10 | – | – | – | – | 7 | > 10 | > 1 | 25 | inhibition [11]: 34%; inhibition [15]: 10% |
| Oc1ccc(Nc2nc(NCc3ccccc3)c3ccccc3n2)cc1 | 100 | 18 | 95 | 40 | 56 | 81 | 55 | 5.9 | > 10 | > 2 | > 50 | IC50 (Rhodesain): 23 µM |
| O=C(Cn1ccnc1[N+](=O)[O-])NCc1ccccc1 [BENZNIDAZOLE] | – | – | – | – | – | – | – | 5.4 | > 50 | > 9 | – | – |
| CC(C)C[C@H](NC(=O)[C@@H]1O[C@H]1C(=O)O)C(=O)NCCCCN=C(N)N | – | 0.028 | – | – | – | – | – | – | – | – | – | IC50 (Rhodesain): 0.0037 µM; inhibition [16]: 87% |
| O=C(c1ccc(Nc2nc(NCCCO)c3ccccc3n2)cc1)N1CCOCC1 | 90 | 15 | 62 | 69 | 53 | 53 | 51 | 22 | > 10 | > 0.5 | > 50 | – |
| Cn1cnc2c(NCc3ccccc3)nc(Nc3ccc(Cl)cc3)nc21 | – | – | 5 | – | – | – | – | 12 | > 10 | > 1 | 18.4 | – |
| OCCCNc1nc(Nc2cccc(F)c2)c2ccccc2n1 | 89 | 25 | 56 | 64 | 67 | 58 | 57 | 0.09 | > 10 | > 109 | 17.8 | – |
| c1ccc(CNc2nc(Nc3nccs3)nc3ccccc23)cc1 | 100 | 16 | 100 | 22 | 60 | 100 | 53 | 5.6 | > 10 | > 2 | > 50 | IC50 (Rhodesain): 12.5 µM |
| c1ccc(CNc2nc(Nc3ccccn3)nc3ccccc23)cc1 | 100 | – | 10 | – | – | – | – | 2.7 | > 10 | > 4 | > 50 | – |
| O=C(Nc1ccccc1)c1ccc(Nc2nc(NCc3ccccc3)c3ccccc3n2)cc1 | – | – | – | 4 | 54 | 100 | 8 | 1.8 | > 10 | > 6 | > 50 | – |
| Cn1cnc2c(NCc3ccccc3)nc(Nc3ccccc3)nc21 | – | – | 11 | – | – | – | – | 2.2 | > 10 | > 5 | 23.8 | – |
| Fc1cccc(Nc2nc(Nc3ccccc3)nc3ccccc23)c1 | 46 | – | 17 | – | – | – | – | 0.07 | > 10 | > 150 | 9 | – |
| COc1ccc(Nc2nc(NCc3ccccc3)c3ccccc3n2)cc1 | – | – | – | 31 | 50 | 83 | 65 | 0.5 | 9 | 18 | 15.1 | inhibition [17]: 58%; IC50 (Cruzipain [12]): 52 µM; TDI [18]: Active; TDI [19]: Active |
| Clc1ccc(Nc2nc(NCCN3CCOCC3)c3ccccc3n2)cc1 | 95 | 2.5 | 48 | 80 | 67 | 75 | 62 | 370 | > 10 | > 27 | 23.6 | – |
| O=C(c1ccc(Nc2nc(NCc3ccccc3)c3ccccc3n2)cc1)N1CCOCC1 | 99 | 7 | 7 | 49 | 53 | 45 | 46 | 0.8 | > 10 | > 12 | > 50 | IC50 (Rhodesain): 22 µM; Ki (Cruzipain [20]): 3.2 µM; inhibition [21]: Active; inhibition [22]: Active |
| OCCCNc1nc(Nc2ccc(Cl)cc2)nc2ccccc12 | 87 | 7.3 | 63 | 35 | 36 | 47 | 35 | 0.25 | > 10 | > 40 | 9 | – |
| c1ccc(CNc2nc(Nc3ccccc3)nc3ccccc23)cc1 | – | 8 | 77 | – | 50 | – | 43 | 0.047 | > 10 | > 211 | 17.5 | IC50 (Rhodesain): 17.5 µM; Ki (Cruzipain [20]): 1.7 µM; inhibition [21]: Active; inhibition [22]: Active |
